According to ChEMBL document CHEMBL4311943, “3-[(1S,2S,3R)-2,3-Difluoro-1-hydroxy-7-methylsulfonylindan-4-yl]oxy-5-fluorobenzonitrile (PT2977), a Hypoxia-Inducible Factor 2α (HIF-2α) Inhibitor for the Treatment of Clear Cell Renal Cell Carcinoma” (J Med Chem, 2019):
Active and inactive are the calls of the source. The rule behind the calls is not given here.

What was measured:
[1] = biological target: B2 bradykinin receptor (Homo sapiens) (UniProt P30411); assay: Activity at human bradykinin B2 receptor at 10 uM
[2] = Volume of distribution at steady state in CD-1 mouse at 3 mg/kg, iv by UPLC-MS analysis; assay type: ADME, organism-based; conditions: in vivo, read-out: Vdss
[3] = biological target: C5a anaphylatoxin chemotactic receptor 1 (Homo sapiens) (UniProt P21730); assay: Activity at human C5a receptor at 10 uM
[4] = biological target: Histamine H3 receptor (Homo sapiens) (UniProt Q9Y5N1); assay: Activity at human H3 receptor at 10 uM
[5] = biological target: cGMP-dependent protein kinase 1 (Homo sapiens) (UniProt Q13976); assay: Activity at human PKG1beta at 10 uM
[6] = Clearance in monkey at 1 mg/kg, iv by UPLC-MS analysis; assay type: ADME, organism-based, Macaca mulatta; conditions: rhesus monkey, in vivo
[7] = biological target: T1, Voltage-gated inwardly rectifying potassium channel KCNH2 (Homo sapiens, UniProt Q12809); assay: Activity at human ERG at 10 uM
[8] = test system: Mus musculus; assay: In vivo inhibition of HIF-2alpha in SCID Beige mouse xenografted with human 786-O cells assessed as reduction in cyclin D1 mRNA expression administered twice daily via oral gavage for 3 days measured 12 hrs post-last dose by qRT-PCR analysis; assay type: functional, organism-based
[9] = biological target: Receptor-type tyrosine-protein kinase FLT3 (Homo sapiens) (UniProt P36888); assay: Activity at human Flt3 at 10 uM
[10] = biological target: Orexin/Hypocretin receptor type 1 (Homo sapiens) (UniProt O43613); assay: Activity at human OX1 receptor at 10 uM
[11] = biological target: Cysteinyl leukotriene receptor 1 (Homo sapiens) (UniProt Q9Y271); assay: Activity at human CysLT1 receptor at 10 uM
[12] = biological target: Protein kinase C delta type (Homo sapiens) (UniProt Q05655); assay: Activity at human PKCdelta at 10 uM
[13] = biological target: Cyclin-dependent kinase 1/cyclin B1 (Homo sapiens) (UniProt P06493+P14635); assay: Activity at human CDK1/cyclinB at 10 uM; assay type: protein-complex assay
[14] = biological target: Serine/threonine-protein kinase D1 (Homo sapiens) (UniProt Q15139); assay: Activity at human PKCmu at 10 uM
[15] = biological target: T2, UGT2B17 (Homo sapiens, UniProt O75795); assay: Substrate activity at recombinant human UGT2B17 expressed in baculovirus infected insect cell membranes assessed as enzyme-mediated glucuronidation by measuring Km at 50 uM preincubated for 5 mins followed by UDPGA addition and measured after 60 mins by LC-MS/MS analysis; assay type: ADME
T2 sequence (O75795 whole entry): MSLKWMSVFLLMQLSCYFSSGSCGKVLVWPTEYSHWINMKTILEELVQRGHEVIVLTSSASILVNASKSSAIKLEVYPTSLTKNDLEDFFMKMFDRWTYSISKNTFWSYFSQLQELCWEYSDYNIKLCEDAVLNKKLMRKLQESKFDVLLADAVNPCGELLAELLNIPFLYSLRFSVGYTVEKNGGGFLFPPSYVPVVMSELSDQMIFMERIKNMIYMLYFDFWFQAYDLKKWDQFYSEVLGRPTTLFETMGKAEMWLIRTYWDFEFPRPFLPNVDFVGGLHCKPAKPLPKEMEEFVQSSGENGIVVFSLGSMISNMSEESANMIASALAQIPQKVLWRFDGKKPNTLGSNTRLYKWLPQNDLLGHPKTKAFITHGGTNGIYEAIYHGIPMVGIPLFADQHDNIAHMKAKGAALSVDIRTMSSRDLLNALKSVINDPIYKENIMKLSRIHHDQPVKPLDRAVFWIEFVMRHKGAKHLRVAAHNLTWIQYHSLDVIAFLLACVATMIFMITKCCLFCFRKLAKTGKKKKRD

[16] = Dose normalized AUClast in Sprague-Dawley rat at 10 mg/kg, po administered via gavage by UPLC-MS analysis; assay type: ADME, organism-based; conditions: in vivo
[17] = test system: 786-0; assay: Antitumor activity against human 786-O cells xenografted in SCID Beige mouse assessed as tumor regression at 0.3 to 3 mg/kg, po administered twice daily via gavage for 3 days measured 12 hrs post-last; assay type: functional, organism-based
[18] = biological target: T3, Cyclin-dependent kinase 5/CDK5 activator 1 (Homo sapiens) (UniProt Q00535+Q15078); assay: Activity at human CDK5/p35 at 10 uM; assay type: protein-complex assay
[19] = biological target: T3, Cyclin-dependent kinase 5/CDK5 activator 1 (Homo sapiens); assay: Activity at human CDK5/p25 at 10 uM; assay type: protein-complex assay
[20] = biological target: Motilin receptor (Homo sapiens) (UniProt O43193); assay: Activity at human MTLR receptor at 10 uM
[21] = biological target: Protein kinase C eta type (Homo sapiens) (UniProt P24723); assay: Activity at human PKCeta at 10 uM
[22] = Volume of distribution at steady state in Beagle dog at 1 mg/kg, iv by UPLC-MS analysis; assay type: ADME, organism-based, Canis lupus familiaris; conditions: in vivo, read-out: Vdss
[23] = biological target: Melanocortin receptor 5 (Homo sapiens) (UniProt P33032); assay: Activity at human MC5 receptor at 10 uM
[24] = biological target: Corticotropin-releasing factor receptor 1 (Homo sapiens) (UniProt P34998); assay: Activity at human CRF1 receptor at 10 uM
[25] = biological target: CX3C chemokine receptor 1 (Homo sapiens) (UniProt P49238); assay: Activity at human CX3CR1 receptor at 10 uM
[26] = biological target: Cyclin-dependent kinase 2/cyclin E1 (Homo sapiens) (UniProt P24864+P24941); assay: Activity at human CDK2/cyclinE at 10 uM; assay type: protein-complex assay
[27] = biological target: Mitogen-activated protein kinase 14 (Homo sapiens) (UniProt Q16539); assay: Activity at human SAPK2a at 10 uM
[28] = biological target: Neuromedin-U receptor 1 (Homo sapiens) (UniProt Q9HB89); assay: Activity at human NMU1 receptor at 10 uM
[29] = AUClast in patient with advanced solid tumor at 160 mg, po administered once daily measured on day 15; assay type: ADME, organism-based; parameters: dose 160 mg, time 0 - last, route oral; conditions: human, in vivo
[30] = biological target: Protein kinase C alpha type (Homo sapiens) (UniProt P17252); assay: Activity at human PKCalpha at 10 uM
[31] = biological target: T1, Voltage-gated inwardly rectifying potassium channel KCNH2; assay: Inhibition of human ERG expressed in mammalian expression system by Q-patch clamp electrophysiology method
[32] = Volume of distribution at steady state in monkey at 1 mg/kg, iv by UPLC-MS analysis; assay type: ADME, organism-based, Macaca mulatta; conditions: rhesus monkey, in vivo, read-out: Vdss
[33] = biological target: Lysophosphatidic acid receptor 3 (Homo sapiens) (UniProt Q9UBY5); assay: Activity at human LPA3 receptor at 10 uM
[34] = biological target: Potassium voltage-gated channel subfamily A member 5 (Homo sapiens) (UniProt P22460); assay: Activity at human Kv1.5 at 10 uM
[35] = biological target: C-C chemokine receptor type 2 (Homo sapiens) (UniProt P41597); assay: Activity at human CCR2B receptor at 10 uM
[36] = Half life in patient with advanced solid tumor at 240 mg, po administered once daily measured on day 15; assay type: ADME, organism-based; conditions: human, in vivo
[37] = biological target: Endothelin receptor type B (Homo sapiens) (UniProt P24530); assay: Activity at human ETB receptor at 10 uM
[38] = biological target: CDK3/Cyclin E (Homo sapiens) (UniProt P24864+Q00526); assay: Activity at human CDK3/cyclinE at 10 uM; assay type: protein-complex assay

T3 sequence (Q00535 whole entry): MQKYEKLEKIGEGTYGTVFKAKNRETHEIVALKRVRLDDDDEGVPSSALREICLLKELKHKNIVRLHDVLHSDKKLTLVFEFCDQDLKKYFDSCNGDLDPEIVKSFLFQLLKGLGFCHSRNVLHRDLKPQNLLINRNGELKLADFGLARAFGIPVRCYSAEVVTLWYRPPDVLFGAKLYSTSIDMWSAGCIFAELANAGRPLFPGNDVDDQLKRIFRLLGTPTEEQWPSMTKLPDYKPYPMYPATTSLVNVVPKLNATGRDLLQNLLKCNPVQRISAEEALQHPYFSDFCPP
T3 sequence (Q15078 99-307 partner limits assumed): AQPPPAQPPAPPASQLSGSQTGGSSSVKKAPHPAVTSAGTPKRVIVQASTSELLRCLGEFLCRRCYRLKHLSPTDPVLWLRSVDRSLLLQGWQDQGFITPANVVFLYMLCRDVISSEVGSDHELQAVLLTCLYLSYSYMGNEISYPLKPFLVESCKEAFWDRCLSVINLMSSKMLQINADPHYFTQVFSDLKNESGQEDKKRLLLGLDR
T1 sequence (Q12809 whole entry): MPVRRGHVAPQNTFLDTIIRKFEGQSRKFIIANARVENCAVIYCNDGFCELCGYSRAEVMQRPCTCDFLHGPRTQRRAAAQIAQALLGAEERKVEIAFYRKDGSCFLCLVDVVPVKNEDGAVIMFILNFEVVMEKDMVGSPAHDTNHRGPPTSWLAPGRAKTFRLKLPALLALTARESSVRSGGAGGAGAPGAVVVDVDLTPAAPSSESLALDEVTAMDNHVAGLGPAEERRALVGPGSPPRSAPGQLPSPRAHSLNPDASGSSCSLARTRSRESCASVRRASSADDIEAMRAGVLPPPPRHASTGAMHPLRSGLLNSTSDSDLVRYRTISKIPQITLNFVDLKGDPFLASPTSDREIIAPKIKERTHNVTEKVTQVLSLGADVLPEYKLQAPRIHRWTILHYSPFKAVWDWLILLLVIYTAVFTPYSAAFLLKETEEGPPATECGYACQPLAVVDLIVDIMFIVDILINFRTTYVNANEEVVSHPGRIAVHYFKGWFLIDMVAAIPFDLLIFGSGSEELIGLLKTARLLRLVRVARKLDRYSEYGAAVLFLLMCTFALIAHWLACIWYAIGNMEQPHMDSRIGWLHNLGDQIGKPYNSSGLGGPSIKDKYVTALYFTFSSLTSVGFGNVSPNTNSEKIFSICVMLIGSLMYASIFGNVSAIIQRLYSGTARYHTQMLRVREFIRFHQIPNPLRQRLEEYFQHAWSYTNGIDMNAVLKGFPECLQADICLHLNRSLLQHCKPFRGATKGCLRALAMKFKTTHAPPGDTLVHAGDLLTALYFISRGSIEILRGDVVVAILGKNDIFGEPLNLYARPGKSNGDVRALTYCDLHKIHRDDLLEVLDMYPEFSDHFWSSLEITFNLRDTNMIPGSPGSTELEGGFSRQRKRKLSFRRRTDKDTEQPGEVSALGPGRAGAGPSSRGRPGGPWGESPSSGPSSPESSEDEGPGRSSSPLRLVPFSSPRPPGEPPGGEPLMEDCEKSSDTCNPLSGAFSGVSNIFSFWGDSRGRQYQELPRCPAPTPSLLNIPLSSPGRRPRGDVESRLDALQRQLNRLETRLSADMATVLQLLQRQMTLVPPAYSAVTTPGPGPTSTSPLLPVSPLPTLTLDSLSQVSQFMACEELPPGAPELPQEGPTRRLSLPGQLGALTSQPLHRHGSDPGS
Sequence of Orexin/Hypocretin receptor type 1 (Homo sapiens) (O43613 whole entry): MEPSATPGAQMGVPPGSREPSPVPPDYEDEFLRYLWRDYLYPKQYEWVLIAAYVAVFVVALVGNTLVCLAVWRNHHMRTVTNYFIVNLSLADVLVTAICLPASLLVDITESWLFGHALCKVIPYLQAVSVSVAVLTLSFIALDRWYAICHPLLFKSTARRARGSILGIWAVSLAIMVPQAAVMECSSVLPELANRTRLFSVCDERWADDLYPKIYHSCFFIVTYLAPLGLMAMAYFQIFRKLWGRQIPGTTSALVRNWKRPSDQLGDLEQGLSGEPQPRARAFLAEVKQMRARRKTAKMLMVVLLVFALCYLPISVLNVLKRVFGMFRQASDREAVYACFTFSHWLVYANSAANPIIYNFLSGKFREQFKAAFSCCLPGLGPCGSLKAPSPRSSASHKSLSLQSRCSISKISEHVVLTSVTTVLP
Sequence of C5a anaphylatoxin chemotactic receptor 1 (Homo sapiens) (P21730 whole entry): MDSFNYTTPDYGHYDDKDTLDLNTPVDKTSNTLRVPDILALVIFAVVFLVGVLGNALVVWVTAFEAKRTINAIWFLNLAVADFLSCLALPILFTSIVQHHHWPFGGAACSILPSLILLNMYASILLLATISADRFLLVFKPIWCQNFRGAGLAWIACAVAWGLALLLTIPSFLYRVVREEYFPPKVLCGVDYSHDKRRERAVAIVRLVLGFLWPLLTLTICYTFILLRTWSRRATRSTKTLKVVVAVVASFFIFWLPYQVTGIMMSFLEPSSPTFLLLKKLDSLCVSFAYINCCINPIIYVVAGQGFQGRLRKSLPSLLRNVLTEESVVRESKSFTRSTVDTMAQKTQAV
Sequence of Potassium voltage-gated channel subfamily A member 5 (Homo sapiens) (P22460 whole entry): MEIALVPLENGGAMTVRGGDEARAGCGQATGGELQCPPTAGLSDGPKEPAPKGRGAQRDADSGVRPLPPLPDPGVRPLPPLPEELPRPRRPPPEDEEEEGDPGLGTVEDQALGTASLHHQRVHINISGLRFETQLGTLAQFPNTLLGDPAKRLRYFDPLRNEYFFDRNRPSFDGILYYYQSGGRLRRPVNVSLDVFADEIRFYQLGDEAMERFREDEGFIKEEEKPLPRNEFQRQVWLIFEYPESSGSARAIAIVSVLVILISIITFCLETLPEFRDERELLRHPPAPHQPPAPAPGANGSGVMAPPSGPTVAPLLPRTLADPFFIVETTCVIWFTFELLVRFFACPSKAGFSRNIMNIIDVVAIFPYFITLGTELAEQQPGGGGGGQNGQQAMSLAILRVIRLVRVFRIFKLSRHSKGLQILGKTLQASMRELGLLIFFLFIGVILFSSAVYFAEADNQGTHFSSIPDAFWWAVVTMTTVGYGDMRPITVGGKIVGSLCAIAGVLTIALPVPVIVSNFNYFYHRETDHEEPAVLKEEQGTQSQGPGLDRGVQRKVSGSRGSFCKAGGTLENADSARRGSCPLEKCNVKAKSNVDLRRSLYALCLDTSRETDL
Sequence of Neuromedin-U receptor 1 (Homo sapiens) (Q9HB89 whole entry): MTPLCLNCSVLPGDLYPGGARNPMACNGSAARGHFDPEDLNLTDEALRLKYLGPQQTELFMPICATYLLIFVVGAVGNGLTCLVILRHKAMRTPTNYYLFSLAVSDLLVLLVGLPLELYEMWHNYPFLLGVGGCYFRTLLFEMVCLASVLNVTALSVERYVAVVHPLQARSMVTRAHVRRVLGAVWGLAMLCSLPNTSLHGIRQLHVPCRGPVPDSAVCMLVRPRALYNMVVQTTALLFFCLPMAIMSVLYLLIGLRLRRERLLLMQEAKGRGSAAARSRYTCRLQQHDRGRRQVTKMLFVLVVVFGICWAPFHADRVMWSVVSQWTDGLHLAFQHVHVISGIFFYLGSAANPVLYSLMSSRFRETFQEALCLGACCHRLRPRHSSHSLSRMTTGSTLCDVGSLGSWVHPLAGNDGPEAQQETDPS
Sequence of Melanocortin receptor 5 (Homo sapiens) (P33032 whole entry): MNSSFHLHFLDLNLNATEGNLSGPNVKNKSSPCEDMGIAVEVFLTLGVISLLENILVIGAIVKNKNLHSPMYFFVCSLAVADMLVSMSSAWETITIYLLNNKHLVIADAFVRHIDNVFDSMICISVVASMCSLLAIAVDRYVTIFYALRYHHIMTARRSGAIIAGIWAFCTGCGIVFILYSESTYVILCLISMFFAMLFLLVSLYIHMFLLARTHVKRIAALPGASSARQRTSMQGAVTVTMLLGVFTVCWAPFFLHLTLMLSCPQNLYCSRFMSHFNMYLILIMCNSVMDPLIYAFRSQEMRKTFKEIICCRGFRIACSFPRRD
Sequence of B2 bradykinin receptor (Homo sapiens) (P30411 whole entry): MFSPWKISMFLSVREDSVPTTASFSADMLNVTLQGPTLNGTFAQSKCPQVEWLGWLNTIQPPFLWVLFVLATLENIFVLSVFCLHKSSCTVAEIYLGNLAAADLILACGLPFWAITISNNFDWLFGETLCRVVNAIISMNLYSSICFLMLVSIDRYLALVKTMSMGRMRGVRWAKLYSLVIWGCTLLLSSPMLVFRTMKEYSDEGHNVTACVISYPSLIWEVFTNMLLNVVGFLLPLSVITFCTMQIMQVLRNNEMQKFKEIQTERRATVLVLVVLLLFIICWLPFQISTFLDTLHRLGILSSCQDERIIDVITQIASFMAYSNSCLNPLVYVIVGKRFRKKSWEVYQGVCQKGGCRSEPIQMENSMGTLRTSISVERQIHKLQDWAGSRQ

Activity [1]: inactive
Vd [2]: 4.9 L/kg
Activity [4]: inactive
Activity [5]: inactive
clearance [6]: 3.5 mL/min/kg
Activity [9]: inactive
Activity [10]: inactive
Activity [11]: inactive
Activity [12]: inactive
Activity [13]: inactive
Activity [14]: inactive
Km at 1 h, 50 µM [15]: 10 µM
AUClast/dose [16]: 13 µM·h
Activity [18]: inactive
Activity [19]: inactive
Activity [20]: inactive
Activity [21]: inactive
Vd [22]: 1.3 L/kg
Activity [23]: inactive
Activity [24]: inactive
Activity [25]: inactive
Activity [26]: inactive
Activity [27]: inactive
Activity [28]: inactive
AUC(0-t) [29]: 21000 ng·h/mL
Activity [30]: inactive
Vd [32]: 2.9 L/kg
Activity [33]: inactive
Activity [34]: inactive
Activity [35]: inactive
half-life [36]: 14.1 h
Activity [37]: inactive
Activity [38]: inactive
SMILES: CS(=O)(=O)c1ccc(Oc2cc(F)cc(C#N)c2)c2c1[C@H](O)[C@H](F)[C@@H]2F [BELZUTIFAN]
Activity [3]: inactive
Activity [7]: Not Active
inhibition [8]: Dose-dependent effect
Activity [17]: Active
IC50 [31]: > 50 µM
